Reference: US20160024535A1, “ELECTROCHEMICAL DETOXIFICATION METHOD OF WOOD-BASED HYDROLYSATE FOR PRODUCING BIOCHEMICALS OR BIOFUELS, AND DETOXIFIED WOOD-BASED HYDROLYSATE” (Korea Institute of Science and Technology, priority 2013, published 2016)

What was measured:
[1] = Cyclic voltammetry, oxidation peak voltage; assay type: physicochemical
Description: First, the optimum voltage for removing each phenolic compound through the electrochemical treatment was determined by cyclic voltammetry. […] In FIG. 1, the abscissa represents voltage (V) and the ordinate represents current (A). […] This means that each of the phenolic compounds is removed by oxidation at the intrinsic voltage.
(§1) A potentiostat (WonA Tech, WMPG 1000) was used for the electrochemical treatment of the medium. Graphite felt was used as an electrode. Specifically, the electrochemical treatment was conducted for by 5 hours at an oxidation peak voltage of each fermentation inhibitor (800 mV for coumaric acid and ferulic acid, 2 V for syringaldehyde and vanillin, 1.8 V for furfural and 5-hydroxyfurfural). Then, the fermentation inhibitors were removed using such methods as gravitational sedimentation, centrifugation, membrane separation, etc. The percentage of the removal rate is wt %.

[2] = Electrochemical treatment of medium, removal rate of phenolic and furanic compounds; assay type: physicochemical; conditions: 0.5 g/L added to medium; for Removal rate: wt %
Description: In order to measure the removal rate of phenolic and furanic compounds, p-coumaric acid, ferulic acid, syringaldehyde and vanillin were selected as phenolic compounds and furfural and 5-hydroxymethylfurfural were selected as furanic compounds. After adding 0.5 g/L of each of the selected 6 inhibitors to a medium, electric current was flown at each optimum oxidation voltage and then removal rate was measured.
as §1
(§2) After the culturing was completed, the concentrations of phenolic and furanic compounds, sugars and acetic acid were measured for each culture. The concentration was analyzed by liquid chromatography (Agilent model 1200). The phenolic compounds were analyzed using a diode array detector and a Zorbax eclipse XDB-C18 column (150×4.6 mm, 3.5 μm). The sugars and acetic acid were analyzed using a refractive index detector and an Aminex HPX-87H column (300×7.8 mm). The growth of the microorganisms was analyzed by measuring absorbance at 600 nm with a spectrophotometer (UVmini-1240, Shimadzu). The concentration of butyric acid and butanol was analyzed using a gas chromatography system (Agilent technology 6890N Network GC system) equipped with a flame ionized detector and an HP-INNOWax column (30 m×250 μm×0.25 μm, Agilent Technologies).

[3] = system: Clostridium tyrobutyricum; assay: Cellular growth of Clostridium tyrobutyricum (absorbance at 600 nm); assay type: cell-based; conditions: 0.5 g/L in medium, before electrochemical treatment, FIG. 2, read-out: inhibition of the growth of the microorganisms
Description: (§3) As a butyric acid fermentation medium, a medium containing 20 g of glucose, 5 g of yeast extract, 0.2 g of magnesium sulfate, 0.01 g of manganese sulfate, 0.01 g of ferric sulfate, 0.01 g of sodium chloride, 0.5 g of monopotassium phosphate (KH2PO4), 0.5 g of dipotassium phosphate (K2HPO4) and 2 g of ammonium acetate per 1 L of the medium was used. As a butanol fermentation medium, a medium containing 20 g of glucose, 1 g of yeast extract, 0.2 g of magnesium sulfate, 0.01 g of manganese sulfate, 0.01 g of ferric sulfate, 0.01 g of sodium chloride, 0.5 g of monopotassium phosphate (KH2PO4), 0.5 g of dipotassium phosphate (K2HPO4) and 2 g of ammonium acetate per 1 L of the medium was used. Each medium was gas-substituted with argon gas and sterilized at 121° C. for 15 minutes before the experiment. […]
as §2, with “The concentration of butyric acid and butanol was analyzed using a gas chromatography system (Agilent technology 6890N Network GC system) equipped with a flame ionized detector and an HP-INNOWax column (30 m×250 μm×0.25 μm, Agilent Technologies).” left out

Clostridium beijerinckii = assay: Production of butanol by Clostridium beijerinckii; assay type: cell-based; conditions: 0.5 g/L in medium, after electrochemical treatment, FIG. 5
Description: as §3
as §2, with “The concentration of butyric acid and butanol was analyzed using a gas chromatography system (Agilent technology 6890N Network GC system) equipped with a flame ionized detector and an HP-INNOWax column (30 m×250 μm×0.25 μm, Agilent Technologies).” left out

[4] = system: Clostridium tyrobutyricum; assay: Production of butyric acid by Clostridium tyrobutyricum; assay type: cell-based; conditions: 0.5 g/L in medium, after electrochemical treatment at optimum voltage, FIG. 3
Description: as §3
as §2, with “The concentration of butyric acid and butanol was analyzed using a gas chromatography system (Agilent technology 6890N Network GC system) equipped with a flame ionized detector and an HP-INNOWax column (30 m×250 μm×0.25 μm, Agilent Technologies).” left out

[5] = 1st treatment, 5 hours at oxidation peak voltage

COc1cc(/C=C/C(=O)O)ccc1O [Ferulic acid, ferulic acid] showed an oxidation peak voltage [1] of 800 mV, a Post-treatment concentration [2, 5] of 0.3475 g/L and a Removal rate [2, 5] of 30.5%. For the same molecule, the Post-treatment concentration ([2]; 2nd treatment) was 0.1155 g/L and the Removal rate ([2]; 2nd treatment) was 76.9%.
For O=Cc1ccco1 [Furfural, furfural], the oxidation peak voltage [1] was 1.8 V, the Post-treatment concentration [2, 5] was 0 g/L and the Removal rate [2, 5] was 100%. The Post-treatment concentration ([2]; 2nd treatment) was 0 g/L and the Removal rate ([2]; 2nd treatment) was 100%.
Work on O=Cc1ccc(CO)o1 [HMF, 5-hydroxymethylfurfural] yielded an oxidation peak voltage [1] of 1.8 V, a Post-treatment concentration [2, 5] of 0 g/L and a Removal rate [2, 5] of 100%. It also gave a Post-treatment concentration ([2]; 2nd treatment) of 0 g/L and a Removal rate ([2]; 2nd treatment) of 100%.
Work on COc1cc(C=O)cc(OC)c1O [Syringaldehyde, syringaldehyde] yielded an oxidation peak voltage [1] of 2 V, a Post-treatment concentration [2, 5] of 0.109 g/L and a Removal rate [2, 5] of 78.2%. It also gave a Post-treatment concentration ([2]; 2nd treatment) of 0.0265 g/L and a Removal rate ([2]; 2nd treatment) of 94.7%.
Molecule COc1cc(C=O)ccc1O [Vanillin, vanillin] has an oxidation peak voltage [1] of 2 V, a Post-treatment concentration [2, 5] of 0.251 g/L and a Removal rate [2, 5] of 49.8%. The Post-treatment concentration ([2]; 2nd treatment) was 0.089 g/L and the Removal rate ([2]; 2nd treatment) was 82.2%.
With O=C(O)/C=C/c1ccc(O)cc1 [p-Coumaric acid, p-coumaric acid] the inhibition at 500 µg/mL [3] was ~100%, the oxidation peak voltage [1] was 800 mV and the “decrease in butanol production recovered by the electrochemical treatment” value (Clostridium beijerinckii) was ~100%. For the same molecule, the Post-treatment concentration [2, 5] was 0.25 g/L, the Removal rate [2, 5] was 50.0% and the Post-treatment concentration ([2]; 2nd treatment) was 0.11 g/L. The Removal rate ([2]; 2nd treatment) was 78.0% and the “toxicity reduced by the electrochemical treatment” value [4] was ~100%.
